Experimental data: ChEMBL document CHEMBL5346933, “Design and synthesis of novel arylurea derivatives of aryloxy(1-phenylpropyl) alicyclic diamines with antimicrobial activity against multidrug-resistant Gram-positive bacteria” (Eur J Med Chem, 2023)
≈ marks a conversion by molar mass, not a printed value. Calls of active or inactive are those of the source. The calls are words filed in the database; no cut-off is given here.

Tests used:
[1] = system: Staphylococcus aureus; assay: Antibacterial activity against methicillin-susceptible Staphylococcus aureus ATCC 25923 assessed as inhibition of bacterial growth incubated for 18 hrs by broth microdilution method; type: functional
[2] = system: Klebsiella pneumoniae; assay: Antibacterial activity against Klebsiella pneumoniae ATCC 700603 assessed as inhibition of bacterial growth incubated for 18 hrs by broth microdilution method; type: functional
[3] = system: Staphylococcus epidermidis; assay: Bactericidal activity against methicillin- susceptible Staphylococcus epidermidis ATCC 12228 assessed as reduction in colony forming units incubated for 18 hrs in broth followed by culturing on agar plate for 24 hrs; type: functional; conditions: time 42 hrs, read-out: MBC99.9
[4] = system: Enterococcus faecium; assay: Antibacterial activity against vancomycin-resistant Enterococcus faecium assessed as inhibition of bacterial growth incubated for 18 hrs by broth microdilution method; type: functional
[5] = system: Cell membrane; assay: Induction of cell membrane depolarization in methicillin-resistant Staphylococcus aureus 19449 assessed as bacterial cells with polarized membrane potential at 4 times MIC incubated for 25 to 30 mins by DiOC2(3) probe based flow cytometry (reference value: 98.8%); type: subcellular; conditions: time 25-30 min
[6] = system: Cell membrane; assay: Induction of cell membrane depolarization in vancomycin-resistant Enterococcus faecium clinical strain assessed as bacterial cells with polarized membrane potential at MIC incubated for 25 to 30 mins by DiOC2(3) probe based flow cytometry (reference value: 96.8%); type: subcellular; conditions: time 25-30 min
[7] = system: Cell membrane; assay: Induction of cell membrane depolarization in methicillin-resistant Staphylococcus aureus 19449 assessed as bacterial cells with polarized membrane potential at 2XMIC incubated for 25 to 30 mins by DiOC2(3) probe based flow cytometry (reference value: 98.8%); type: subcellular; conditions: time 25-30 min
[8] = system: Staphylococcus epidermidis; assay: Bactericidal activity against linezolid-resistant Staphylococcus epidermidis NIL 4399/19 assessed as reduction in colony forming units incubated for 18 hrs in broth followed by culturing on agar plate for 24 hrs; type: functional; conditions: time 42 hrs, read-out: MBC99.9
[9] = system: Staphylococcus aureus; assay: Bactericidal activity against vancomycin-intermediate Staphylococcus aureus ATCC 700699 assessed as reduction in colony forming units incubated for 18 hrs in broth followed by culturing on agar plate for 24 hrs; type: functional; conditions: time 42 hrs, read-out: MBC99.9
[10] = system: Cell membrane; assay: Induction of cell membrane depolarization in vancomycin-resistant Enterococcus faecium clinical strain assessed as bacterial cells with depolarized membrane potential at 2XMIC incubated for 25 to 30 mins by DiOC2(3) probe based flow cytometry (reference value: 0.8%); type: subcellular; conditions: time 25-30 min
[11] = system: Enterococcus faecium; assay: Antibacterial activity against vancomycin-resistant Enterococcus faecium assessed as inhibition of bacterial growth measured for 18 hrs by OD600 based analysis; type: functional, organism-based
[12] = system: Enterococcus faecalis; assay: Antibacterial activity against Enterococcus faecalis ATCC 29212 assessed as inhibition of bacterial growth measured for 18 hrs by OD600 based analysis; type: functional, organism-based
[13] = system: Staphylococcus epidermidis; assay: Ratio of MBC to MIC for linezolid-resistant Staphylococcus epidermidis NIL 4399/19; type: functional
[14] = system: Cell membrane; assay: Induction of cell membrane depolarization in Staphylococcus aureus Newman assessed as ratio of red to green fluorescence intensity at MIC incubated for 25 to 30 mins by DiOC2(3) probe based flow cytometry; type: subcellular; conditions: time 25-30 min
[15] = system: Cell membrane; assay: Induction of cell membrane depolarization in vancomycin-resistant Enterococcus faecium clinical strain assessed as bacterial cells with polarized membrane potential at 4 times MIC incubated for 25 to 30 mins by DiOC2(3) probe based flow cytometry (reference value: 96.8%); type: subcellular; conditions: time 25-30 min
[16] = system: Enterococcus faecalis; assay: Antibacterial activity against Enterococcus faecalis ATCC 29212 assessed as inhibition of bacterial growth incubated for 18 hrs by broth microdilution method; type: functional
[17] = system: Staphylococcus aureus; assay: Ratio of MBC to MIC for biofilm producer Staphylococcus aureus RN450; type: functional
[18] = system: Staphylococcus aureus; assay: Antibacterial activity against biofilm producer Staphylococcus aureus RN450 assessed as inhibition of bacterial growth incubated for 18 hrs by broth microdilution method; type: functional
[19] = system: Cell membrane; assay: Induction of cell membrane depolarization in methicillin-resistant Staphylococcus aureus 19449 assessed as bacterial cells with depolarized membrane potential at MIC incubated for 25 to 30 mins by DiOC2(3) probe based flow cytometry (reference value: 0.7%); type: subcellular; conditions: time 25-30 min
[20] = system: Cell membrane; assay: Induction of cell membrane depolarization in methicillin-resistant Staphylococcus aureus 19449 assessed as ratio of red to green fluorescence intensity at MIC incubated for 25 to 30 mins by DiOC2(3) probe based flow cytometry; type: subcellular; conditions: time 25-30 min
[21] = system: Streptococcus pneumoniae; assay: Antibacterial activity against macrolides-lincosamides and streptogramins B-resistant Streptococcus pneumoniae O/19/4199 assessed as inhibition of bacterial growth incubated for 18 hrs by broth microdilution method; type: functional
[22] = system: Staphylococcus aureus; assay: Bactericidal activity against vancomycin-intermediate Staphylococcus aureus ATCC 700699 assessed as log reduction of bacterial colony forming units at 4 times MIC incubated for 8 hrs in broth followed by culturing on agar plate for 24 hrs by time-killing assay; type: functional; conditions: time 32 hrs
[23] = system: Staphylococcus aureus; assay: Bactericidal activity against methicillin-susceptible Staphylococcus aureus ATCC 25923 assessed as reduction in colony forming units incubated for 18 hrs in broth followed by culturing on agar plate for 24 hrs; type: functional; conditions: time 42 hrs, read-out: MBC99.9
[24] = system: Cell membrane; assay: Induction of cell membrane depolarization in Staphylococcus aureus Newman assessed as bacterial cells with polarized membrane potential at MIC incubated for 25 to 30 mins by DiOC2(3) probe based flow cytometry (reference value: 94.3%); type: subcellular; conditions: time 25-30 min
[25] = system: Staphylococcus aureus; assay: Bactericidal activity against vancomycin-intermediate Staphylococcus aureus ATCC 700699 assessed as log reduction of bacterial colony forming units at 4 times MIC incubated for 20 hrs in broth followed by culturing on agar plate for 24 hrs by time-killing assay; type: functional; conditions: time 44 hrs
[26] = system: Cell membrane; assay: Induction of cell membrane depolarization in Staphylococcus aureus Newman assessed as bacterial cells with depolarized membrane potential at 4 times MIC incubated for 25 to 30 mins by DiOC2(3) probe based flow cytometry (reference value: 1.6%); type: subcellular; conditions: time 25-30 min
[27] = Metabolic stability in rat liver microsomes assessed as parent compound remaining at 0.4 mg/ml preincubated for 10 mins followed by NADPH-regenerating system addition for 60 mins by UPLC-MS analysis; type: ADME, Microsome; conditions: time 70 min, read-out: Stability
[28] = system: Cell membrane; assay: Induction of cell membrane depolarization in Staphylococcus aureus Newman assessed as bacterial cells with polarized membrane potential at 2XMIC incubated for 25 to 30 mins by DiOC2(3) probe based flow cytometry (reference value: 94.3%); type: subcellular; conditions: time 25-30 min
[29] = Induction of hemolysis in horse RBC at 200 uM incubated for 1 hr; type: toxicity, cell-based, Equus caballus, Erythrocyte; conditions: horse red blood cells (erythrocytes), read-out: Activity
[30] = system: Cell membrane; assay: Induction of cell membrane depolarization in methicillin-resistant Staphylococcus aureus 19449 assessed as bacterial cells with depolarized membrane potential at 4 times MIC incubated for 25 to 30 mins by DiOC2(3) probe based flow cytometry (reference value: 0.7%); type: subcellular; conditions: time 25-30 min
[31] = Cytotoxicity against human MRC5 cells assessed as reduction in cell viability incubated for 24 hrs by MTT assay; type: toxicity, cell-based
[32] = system: Enterococcus faecalis; assay: Bactericidal activity against Enterococcus faecalis ATCC 29212 assessed as reduction in colony forming units incubated for 18 hrs in broth followed by culturing on agar plate for 24 hrs; type: functional; conditions: time 42 hrs, read-out: MBC99.9
[33] = system: Pseudomonas aeruginosa; assay: Antibacterial activity against Pseudomonas aeruginosa ATCC 27853 assessed as inhibition of bacterial growth incubated for 18 hrs by broth microdilution method; type: functional
[34] = system: Cell membrane; assay: Induction of cell membrane depolarization in vancomycin-resistant Enterococcus faecium clinical strain assessed as ratio of red to green fluorescence intensity at MIC incubated for 25 to 30 mins by DiOC2(3) probe based flow cytometry; type: subcellular; conditions: time 25-30 min

O=C(Nc1cccc(Cl)c1)NC1CCN(CCC(Oc2cccc(C(F)(F)F)c2)c2ccccc2)CC1 (racemic)
MIC [1]: 3.12 µg/mL (≈ 5.87 µM)
MIC [2]: > 12.5 µg/mL
MBC [3]: 3.12 µg/mL (≈ 5.87 µM)
MIC [4]: 1.56 µg/mL (≈ 2.93 µM)
Activity [5]: 0%
Activity [6]: 59.3%
Activity [7]: 0.1%
MBC [8]: 6.25 µg/mL (≈ 11.7 µM)
MBC [9]: 12.5 µg/mL (≈ 23.5 µM)
Activity [10]: 92.7%
Activity [11]: Active
Activity [12]: Active
Ratio [13]: 2
Ratio [14]: 0.27
Activity [15]: 1.5%
MIC [16]: 1.56 µg/mL (≈ 2.93 µM)
Ratio [17]: 4
MIC [18]: 1.56 µg/mL (≈ 2.93 µM)
Activity [19]: 91.6%
Ratio [20]: 0.53
MIC [21]: 6.25 µg/mL (≈ 11.7 µM)
Activity [22]: 2 log10CFU/ml
MBC [23]: 12.5 µg/mL (≈ 23.5 µM)
Activity [24]: 0.6%
Activity [25]: >=3 log10CFU/ml
Activity [26]: 89.8%
remaining at 1 h [27]: 95%
Activity [28]: 0.1%
hemolysis at 1 h, 200 µM [29]: < 1%
Activity [30]: 96.4%
IC50 at 24 h [31]: 12.5 µg/mL (≈ 23.5 µM)
MBC [32]: 6.25 µg/mL (≈ 11.7 µM)
MIC [33]: > 12.5 µg/mL
Ratio [34]: 0.2
